How the values were obtained:
Type in all cases: biochemical
[1] = target: T1, complex I (NADH/ubiquinone oxidoreductase) (Escherichia coli, UniProt P0AFC7+P0AFD4+P31979+P33599); experiment: NADH absorbance at […] nm, proteoliposomes; conditions: 100 µM NADH, 60 µM decyl-ubiquinone, 5 mM MES/NaOH, 50 mM KCl, 2 mM MgCl2, pH 6.0, 30 °C
T1 construct: gene nuoB; 13-subunit complex, about 550 kDa, NuoF His6-tagged (pBADnuo nuoFHis6) expressed in BW25113 delta-nuo delta-ndh; DDM-purified, in proteoliposomes or in membranes; with NADH-quinone oxidoreductase subunit A; NADH-quinone oxidoreductase subunit E; NADH-quinone oxidoreductase subunit G; NADH-quinone oxidoreductase subunit I; NADH-quinone oxidoreductase subunit J; NADH-quinone oxidoreductase subunit K; NADH-quinone oxidoreductase subunit L; NADH-quinone oxidoreductase subunit M; NADH-quinone oxidoreductase subunit N

6His-SpoT = target: T2, 6His-SpoT (Escherichia coli, UniProt P0AG24); experiment: HPLC-UV ([…] nm) ppGpp hydrolysis; conditions: 1 mM ppGpp, 1 mM manganese, cytosolic buffer with 250 mM imidazole, 25 °C, pH varied; free enzyme
T2 construct: full-length with N-terminal His tag (pETM11-SpoT), expressed in E. coli BL21 (DE3) pLysS, Ni-Sepharose purified

[2] = target: T3, ENC-spoT (encapsulin SpoT) (Escherichia coli, UniProt P0AG24); experiment: HPLC-UV ([…] nm) ppGpp hydrolysis; conditions: 1 mM ppGpp, 1 mM manganese, cytosolic buffer with 250 mM imidazole and 0.1% triton-X100, 25 °C, pH varied; enzyme encapsulated in nanocage
T3 construct: N-terminal 6xHis tag, C-terminal 30-residue DyP-peroxidase cargo tag; co-expressed in E. coli BL21-AI inside Mycolicibacterium hassiacum encapsulin nanocage
T3 sequence (P0AG24 whole entry): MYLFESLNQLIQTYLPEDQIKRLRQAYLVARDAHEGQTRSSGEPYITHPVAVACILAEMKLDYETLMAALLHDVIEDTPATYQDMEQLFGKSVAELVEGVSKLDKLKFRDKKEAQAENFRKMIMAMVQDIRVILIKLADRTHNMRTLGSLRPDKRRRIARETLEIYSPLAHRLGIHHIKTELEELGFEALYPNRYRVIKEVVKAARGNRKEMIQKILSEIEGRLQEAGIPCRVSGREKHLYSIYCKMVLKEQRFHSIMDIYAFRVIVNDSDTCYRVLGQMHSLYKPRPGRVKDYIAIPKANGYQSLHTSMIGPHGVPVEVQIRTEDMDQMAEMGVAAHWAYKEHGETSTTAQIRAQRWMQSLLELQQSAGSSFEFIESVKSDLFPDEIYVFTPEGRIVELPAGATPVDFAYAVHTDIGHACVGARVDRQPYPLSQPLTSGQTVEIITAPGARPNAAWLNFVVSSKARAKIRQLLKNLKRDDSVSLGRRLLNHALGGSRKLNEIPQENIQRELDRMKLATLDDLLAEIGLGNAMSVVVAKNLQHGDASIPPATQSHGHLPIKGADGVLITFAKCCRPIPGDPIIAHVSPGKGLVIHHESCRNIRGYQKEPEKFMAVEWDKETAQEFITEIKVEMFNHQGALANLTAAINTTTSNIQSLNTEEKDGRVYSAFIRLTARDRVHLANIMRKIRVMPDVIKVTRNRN

T2 sequence (P0AG24 whole entry): as above

Row | SMILES | NADH absorbance at 340 nm, proteoliposomes [1] | HPLC-UV (260 nm) ppGpp hydrolysis (6His-SpoT) | HPLC-UV (260 nm) ppGpp hydrolysis [2]
1 | NC(=O)C1=CN([C@@H]2O[C@H](COP(=O)(O)OP(=O)(O)OC[C@H]3O[C@@H](n4cnc5c(N)ncnc54)[C@H](O)[C@@H]3O)[C@@H](O)[C@H]2O)C=CC1 [NADH] | liposomes reconstituted with wild-type complex I and the variants oxidized NADH at a similar rate |  | 
2 | CCCCCCCCCCC1=C(C)C(=O)C(OC)=C(OC)C1=O [decyl ubiquinone] | NADH/decyl ubiquinone oxidoreduction was followed by monitoring the decreasing NADH concentration |  | 
3 | Nc1nc2c(ncn2[C@@H]2O[C@H](COP(=O)(O)OP(=O)(O)O)[C@@H](OP(=O)(O)OP(=O)(O)O)[C@H]2O)c(=O)[nH]1 [ppGpp] |  | SpoT hydrolyzes ppGpp to GDP, and that manganese ions are necessary for hydrolysis | We used both the encapsulated SpoT and regularly purified SpoT

Reference: PMC8795404, “Mutations in respiratory complex I promote antibiotic persistence through alterations in intracellular acidity and protein synthesis” (Nature Communications, 2022)
